Reference: the NIST ThermoML archive (doi:10.1021/je700492k)

Experiment: excess molar enthalpy (molar enthalpy of mixing); xn = mol fraction of the nth substance listed
Conditions: Liquid, Flow calorimetry

CC(=O)CC(C)=O [2,4-pentanedione] + CCO
excess molar enthalpy [kcal/mol]
Conditions | 298.15 K | 313.15 K | 328.15 K
100 kPa, x1 = 0.0496 | 0.0592 | 0.0668 | 0.0752
100 kPa, x1 = 0.0992 | 0.109 | 0.124 | 0.142
100 kPa, x1 = 0.1496 | 0.156 | 0.175 | 0.2
100 kPa, x1 = 0.1992 | 0.193 | 0.219 | 0.25
100 kPa, x1 = 0.2491 | 0.225 | 0.255 | 0.29
100 kPa, x1 = 0.2988 | 0.251 | 0.283 | 0.324
100 kPa, x1 = 0.3482 | 0.273 | 0.309 | 0.353
100 kPa, x1 = 0.3988 | 0.29 | 0.327 | 0.373
100 kPa, x1 = 0.4484 | 0.301 | 0.34 | 0.387
100 kPa, x1 = 0.4988 | 0.309 | 0.348 | 0.395
100 kPa, x1 = 0.5476 | 0.312 | 0.349 | 0.396
100 kPa, x1 = 0.5991 | 0.309 | 0.345 | 0.39
100 kPa, x1 = 0.6484 | 0.3 | 0.334 | 0.377
100 kPa, x1 = 0.6976 | 0.286 | 0.316 | 0.355
100 kPa, x1 = 0.7494 | 0.264 | 0.29 | 0.324
100 kPa, x1 = 0.798 | 0.236 | 0.256 | 0.284
100 kPa, x1 = 0.849 | 0.196 | 0.211 | 0.233
100 kPa, x1 = 0.8992 | 0.146 | 0.154 | 0.169
100 kPa, x1 = 0.9485 | 0.0824 | 0.0848 | 0.0934
100 kPa, x1 = 0.9688 | 0.0518 | 0.0529 | 0.0585
10000 kPa, x1 = 0.0496 | 0.0575 | 0.0658 | 0.0749
10000 kPa, x1 = 0.0992 | 0.109 | 0.124 | 0.139
10000 kPa, x1 = 0.1496 | 0.153 | 0.174 | 0.198
10000 kPa, x1 = 0.1992 | 0.191 | 0.216 | 0.246
10000 kPa, x1 = 0.2491 | 0.223 | 0.253 | 0.287
10000 kPa, x1 = 0.2988 | 0.249 | 0.282 | 0.321
10000 kPa, x1 = 0.3482 | 0.27 | 0.306 | 0.348
10000 kPa, x1 = 0.3988 | 0.287 | 0.325 | 0.369
10000 kPa, x1 = 0.4484 | 0.299 | 0.338 | 0.382
10000 kPa, x1 = 0.4988 | 0.307 | 0.345 | 0.391
10000 kPa, x1 = 0.5476 | 0.309 | 0.347 | 0.391
10000 kPa, x1 = 0.5991 | 0.306 | 0.342 | 0.384
10000 kPa, x1 = 0.6484 | 0.298 | 0.332 | 0.371
10000 kPa, x1 = 0.6976 | 0.284 | 0.315 | 0.351
10000 kPa, x1 = 0.7494 | 0.262 | 0.289 | 0.317
10000 kPa, x1 = 0.798 | 0.234 | 0.256 | 0.276
10000 kPa, x1 = 0.849 | 0.195 | 0.211 | 0.224
10000 kPa, x1 = 0.8992 | 0.143 | 0.153 | 0.163
10000 kPa, x1 = 0.9485 | 0.0813 | 0.084 | 0.0911
10000 kPa, x1 = 0.9688 | 0.0514 | 0.0524 | 0.0568

CC(=O)CC(C)=O [2,4-pentanedione] + CO
excess molar enthalpy [kcal/mol]
Conditions | 298.15 K | 313.15 K | 328.15 K
100 kPa, x1 = 0.0502 | 0.0494 | 0.0583 | 0.0658
100 kPa, x1 = 0.0995 | 0.0896 | 0.107 | 0.122
100 kPa, x1 = 0.1494 | 0.125 | 0.15 | 0.172
100 kPa, x1 = 0.1998 | 0.154 | 0.187 | 0.215
100 kPa, x1 = 0.2496 | 0.178 | 0.217 | 0.251
100 kPa, x1 = 0.3006 | 0.199 | 0.243 | 0.282
100 kPa, x1 = 0.3504 | 0.215 | 0.263 | 0.307
100 kPa, x1 = 0.3995 | 0.227 | 0.278 | 0.325
100 kPa, x1 = 0.4492 | 0.237 | 0.289 | 0.338
100 kPa, x1 = 0.499 | 0.242 | 0.295 | 0.346
100 kPa, x1 = 0.5509 | 0.244 | 0.296 | 0.348
100 kPa, x1 = 0.5989 | 0.241 | 0.293 | 0.342
100 kPa, x1 = 0.6509 | 0.233 | 0.284 | 0.33
100 kPa, x1 = 0.7006 | 0.221 | 0.269 | 0.312
100 kPa, x1 = 0.7507 | 0.204 | 0.248 | 0.286
100 kPa, x1 = 0.8006 | 0.179 | 0.219 | 0.25
100 kPa, x1 = 0.85 | 0.147 | 0.183 | 0.205
100 kPa, x1 = 0.8983 | 0.109 | 0.136 | 0.152
100 kPa, x1 = 0.95 | 0.057 | 0.0741 | 0.0828
10000 kPa, x1 = 0.0501 | 0.0479 | 0.058 | 0.0654
10000 kPa, x1 = 0.0994 | 0.0879 | 0.107 | 0.121
10000 kPa, x1 = 0.1493 | 0.123 | 0.15 | 0.171
10000 kPa, x1 = 0.1997 | 0.152 | 0.187 | 0.214
10000 kPa, x1 = 0.2494 | 0.176 | 0.217 | 0.25
10000 kPa, x1 = 0.3004 | 0.196 | 0.243 | 0.28
10000 kPa, x1 = 0.3502 | 0.213 | 0.263 | 0.304
10000 kPa, x1 = 0.3993 | 0.225 | 0.277 | 0.323
10000 kPa, x1 = 0.449 | 0.235 | 0.289 | 0.335
10000 kPa, x1 = 0.4988 | 0.24 | 0.294 | 0.343
10000 kPa, x1 = 0.5507 | 0.242 | 0.296 | 0.345
10000 kPa, x1 = 0.5987 | 0.24 | 0.292 | 0.34
10000 kPa, x1 = 0.6507 | 0.233 | 0.283 | 0.328
10000 kPa, x1 = 0.7005 | 0.221 | 0.269 | 0.308
10000 kPa, x1 = 0.7505 | 0.204 | 0.248 | 0.282
10000 kPa, x1 = 0.8004 | 0.179 | 0.219 | 0.246
10000 kPa, x1 = 0.8498 | 0.147 | 0.182 | 0.203
10000 kPa, x1 = 0.8982 | 0.108 | 0.135 | 0.151
10000 kPa, x1 = 0.9499 | 0.0569 | 0.0725 | 0.0819
